According to BindingDB's records for doi:10.7270/Q2TX3CTT (Broad Institute, 2010):

Molecular target: Glycogen synthase kinase-3 beta (Homo sapiens, UniProt P49841)
Assay: concentration-response blocking of human GSK3B – biochemical, luminescence, cell-free homogeneous, retest, dose response (AID 434954)

Glycogen synthase kinase-3 beta, sequence (P49841 whole entry): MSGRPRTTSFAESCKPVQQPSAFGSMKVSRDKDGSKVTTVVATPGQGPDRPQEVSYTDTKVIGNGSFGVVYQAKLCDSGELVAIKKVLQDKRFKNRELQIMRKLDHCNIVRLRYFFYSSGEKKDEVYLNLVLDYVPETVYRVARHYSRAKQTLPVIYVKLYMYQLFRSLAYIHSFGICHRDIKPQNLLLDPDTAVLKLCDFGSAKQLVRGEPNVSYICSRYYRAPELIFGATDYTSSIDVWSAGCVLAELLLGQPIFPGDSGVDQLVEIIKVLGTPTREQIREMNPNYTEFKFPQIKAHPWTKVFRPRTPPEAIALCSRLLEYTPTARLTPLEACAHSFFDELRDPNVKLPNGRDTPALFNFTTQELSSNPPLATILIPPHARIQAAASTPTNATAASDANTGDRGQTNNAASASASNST

CC(=NNC(=O)c1ccc(C(=O)NN=C(C)c2ccco2)o1)c1ccco1 [N'~2~,N'~5~-bis[1-(2-furyl)ethylidene]-2,5-furandicarbohydrazide]
EC50: > 300 µM

Cc1c(NC(=O)CSc2nnc3sc4ccccc4n23)c(=O)n(-c2ccccc2)n1C [MLS000060665]
EC50: > 300 µM

O=C(NCc1cccs1)c1cc(C2CC2)on1 [SMR000127641]
EC50: > 300 µM

CSc1nsc(CC=Nc2ccc(Cl)cc2)c1C#N [MLS000539457]
EC50: > 300 µM

C/C=C/c1ccc(OCC(=O)O)c(OC)c1
EC50: > 300 µM

CC(C)N1C(=O)C(=CNCc2cccnc2)C(=O)NC1=S [1-Isopropyl-5-[1-[(pyridin-3-ylmethyl)-amino]-meth-(E)-ylidene]-2-thioxo-dihydro-pyrimidine-4,6-dione]
EC50: > 300 µM

CCCn1nc(NC(=O)c2cccs2)c2cc3ccccc3nc21 [Thiophene-2-carboxylic acid (1-propyl-1H-pyrazolo[3,4-b]quinolin-3-yl)-amide]
EC50: > 300 µM

COc1ccc(C(=O)c2coc3ccc(OC(C)=O)cc23)cc1
EC50: > 300 µM

CSc1nc(NCc2ccccc2)c2c3c(sc2n1)CN(C)CC3
EC50: 23.3 µM

CCC(C)Nc1nc(N)c([N+](=O)[O-])c(NCCO)n1 (configuration not stated) [MLS000332774]
EC50: 14.7 µM

CCOC(=O)CC(=O)CSc1ccc2nnc(-c3ccccc3)n2n1 [ethyl 3-oxo-4-[(3-phenyl[1,2,4]triazolo[4,3-b]pyridazin-6-yl)thio]butanoate]
EC50: > 300 µM

Nc1nonc1-n1nnc(C(=O)NN=Cc2ccccn2)c1-c1ccccc1 [1-(4-azanyl-1,2,5-oxadiazol-3-yl)-5-phenyl-N-(pyridin-2-ylmethylideneamino)-1,2,3-triazole-4-carboxamide]
EC50: 65.6 µM

COc1cccc(C(=O)N/N=C/c2ccc(Oc3ccc([N+](=O)[O-])cn3)c(OC)c2)c1 [3-methoxy-N-[[3-methoxy-4-(5-nitropyridin-2-yl)oxyphenyl]methylideneamino]benzamide]
EC50: > 300 µM

O=C(Nc1ccc(Cl)cc1)Nc1ccccn1 [1-(4-chlorophenyl)-3-(2-pyridinyl)urea]
EC50: 43.7 µM

CCn1nc(NC(=O)Cc2ccc(OC)cc2)c2cc3cc(C)ccc3nc21
EC50: > 300 µM

Cc1ccc(OCC(=O)N/N=C/c2ccc(O)cc2)c([N+](=O)[O-])c1 [2-(4-methyl-2-nitro-phenoxy)-N'-[(4-oxidanylidenecyclohexa-2,5-dien-1-ylidene)methyl]ethanehydrazide]
EC50: 7.18 µM

O=c1cc(-c2ccncc2)oc2ccccc12 [2-(4-pyridyl)chromone]
EC50: 17.9 µM

O=C1N=C(Nc2ccccc2Cl)SC1=Cc1ccc(C(=O)O)cc1 [MLS001203362]
EC50: > 300 µM

O=c1oc(-c2cccs2)nc2sc3c(c12)CCC3 [MLS000107331]
EC50: > 300 µM

COc1ccc(Cl)cc1NC(=O)CS(=O)(=O)c1cccc2nsnc12 [2-(2,1,3-benzothiadiazol-4-ylsulfonyl)-N-(5-chloranyl-2-methoxy-phenyl)ethanamide]
EC50: > 300 µM

COc1ccc2c(c1)-c1c(sn(-c3ccccc3)c1=S)C(C)(C)N2
EC50: > 300 µM

O=C(CCc1ccccc1)Nc1ccc2c(c1)OCCO2 [N-(2,3-dihydro-1,4-benzodioxin-6-yl)-3-phenyl-propanamide]
EC50: > 300 µM

Clc1ccc(-c2nnc(-c3ccccc3)c(N3CCSCC3)n2)cc1
EC50: > 300 µM

CCOC(=O)C(C)Sc1ccc2nnc(-c3ccc(F)cc3)n2n1 (configuration not stated) [2-[[3-(4-fluorophenyl)-[1,2,4]triazolo[4,3-b]pyridazin-6-yl]thio]propanoic acid ethyl ester]
EC50: 19.3 µM

COc1ccc(S(=O)(=O)NCC(c2ccc3c(c2)OCO3)N2CCOCC2)cc1 (configuration not stated) [N-[2-(1,3-benzodioxol-5-yl)-2-morpholin-4-ylethyl]-4-methoxybenzenesulfonamide]
EC50: > 300 µM

O=C(NCCc1ccccc1)c1cccc(Br)c1
EC50: > 300 µM

N#Cc1cccc(-c2nnc(SCc3ccccc3C#N)o2)c1 [SMR000006352]
EC50: > 300 µM

COC(=O)CSc1ccc2nnc(-c3ccc(F)cc3)n2n1 [methyl 2-[[3-(4-fluorophenyl)-[1,2,4]triazolo[4,3-b]pyridazin-6-yl]sulfanyl]ethanoate]
EC50: 9.3 µM

O=C(COc1ccccc1[N+](=O)[O-])NN=Cc1ccncc1
EC50: > 300 µM

CCCCCc1cc(O)c2c(C)cc(=O)oc2c1 [5-hydroxy-4-methyl-7-pentyl-1-benzopyran-2-one]
EC50: > 300 µM

O=C(COc1ccccc1[N+](=O)[O-])N/N=C/c1ccc[nH]1 [(2-Nitro-phenoxy)-acetic acid [1-(1H-pyrrol-2-yl)-meth-(E)-ylidene]-hydrazide]
EC50: > 300 µM

COc1cccc(C(=O)NNC(=O)c2ccccc2)c1
EC50: > 300 µM

N#Cc1c(O)nc(-c2ccncc2)nc1-c1ccccc1 [4-oxidanylidene-6-phenyl-2-pyridin-4-yl-1H-pyrimidine-5-carbonitrile]
EC50: > 300 µM

c1ccc(CNc2ncnc3scc(-c4cccs4)c23)nc1 [N-(pyridin-2-ylmethyl)-5-thiophen-2-yl-thieno[2,3-d]pyrimidin-4-amine]
EC50: > 300 µM

CCC(CC)NC(=O)COC(=O)c1ccc2c(c1)C(=O)N(Cc1ccco1)C2=O [2-(2-furanylmethyl)-1,3-dioxo-5-isoindolecarboxylic acid [2-oxo-2-(pentan-3-ylamino)ethyl] ester]
EC50: > 300 µM

O=C(Nc1ncc(Cc2ccccc2Cl)s1)C1CCCO1 (configuration not stated) [Tetrahydro-furan-2-carboxylic acid [5-(2-chloro-benzyl)-thiazol-2-yl]-amide]
EC50: 27.6 µM

Oc1ccc(CNCC2COc3ccccc3O2)cc1 (configuration not stated) [SMR000145120]
EC50: > 300 µM

CCC(C)NC(=O)CNC(=S)N(CCCN1CCOCC1)Cc1cccs1 (configuration not stated) [N-butan-2-yl-2-[[3-morpholin-4-ylpropyl(thiophen-2-ylmethyl)carbamothioyl]amino]ethanamide]
EC50: > 300 µM

COc1ccc(OC)c(Nc2nc(NCc3ccco3)nc(N)c2[N+](=O)[O-])c1 [N'-(2,5-Dimethoxy-phenyl)-N-furan-2-ylmethyl-5-nitro-pyrimidine-2,4,6-triamine]
EC50: > 300 µM

COc1ccc(C(=O)OCCc2sc[n+](CC(=O)c3ccccc3)c2C)cc1 [4-methoxybenzoic acid 2-(4-methyl-3-phenacyl-5-thiazol-3-iumyl)ethyl ester;bromide]
EC50: 26 µM

COc1ccc(-c2nn(-c3ccccc3)cc2C=NNC(N)=S)cc1OC [[[3-(3,4-dimethoxyphenyl)-1-phenyl-4-pyrazolyl]methylideneamino]thiourea]
EC50: > 300 µM

CCOC(=O)c1nnn(-c2nonc2N)c1-c1ccc(C)cc1 [ethyl 1-(4-amino-1,2,5-oxadiazol-3-yl)-5-(4-methylphenyl)triazole-4-carboxylate]
EC50: 51 µM

O=C(CC1NCCNC1=O)Nc1cc(Cl)cc(Cl)c1 (configuration not stated) [N-(3,5-dichlorophenyl)-2-(3-oxopiperazin-2-yl)acetamide]
EC50: > 300 µM

CCOC(=O)CSc1nnc(-c2cccs2)n1-c1ccccc1
EC50: > 300 µM

COC(=O)c1cccc(Nc2nc(-c3ccncc3)nc3ccccc23)c1 [MLS001163930]
EC50: > 300 µM

COC(=O)c1nnn(-c2nonc2N)c1CN1CCCC1 [MLS001202105]
EC50: > 300 µM

O=C(CSc1nnc(-c2ccncc2)n1-c1ccc(F)cc1)NC(=O)NCc1ccco1 [SMR000065428]
EC50: > 300 µM

Cc1cc(C(=O)OCCN2C(=O)c3ccccc3C2=O)c2ccccc2n1 [MLS000565821]
EC50: > 300 µM

CCc1ccc(S(=O)(=O)Nc2ccc(O)c3c(=O)cc(-c4ccccc4Cl)oc23)cc1 [SMR000465243]
EC50: > 300 µM

COc1ccc(C(=O)N/C(=C\c2ccco2)C(=O)NCCN2CCOCC2)cc1 [MLS000923740]
EC50: > 300 µM

CCOC(=O)C1C(C)=Nc2ncnn2C1c1ccccc1F (configuration not stated) [ethyl 7-(2-fluorophenyl)-5-methyl-4,7-dihydro[1,2,4]triazolo[1,5-a]pyrimidine-6-carboxylate]
EC50: > 300 µM

O=C(NC1CCCCC1)C(c1ccc(F)cc1)N(Cc1ccccc1)C(=O)CN1C(=O)c2ccccc2S1(=O)=O (configuration not stated) [N-cyclohexyl-2-(4-fluorophenyl)-2-[[1-oxo-2-(1,1,3-trioxo-1,2-benzothiazol-2-yl)ethyl]-(phenylmethyl)amino]acetamide]
EC50: > 300 µM

COC(=O)c1sc(Nc2ccccc2)nc1C [2-anilino-4-methyl-5-thiazolecarboxylic acid methyl ester]
EC50: > 300 µM

CC(CC(=O)Nc1ccc2c(c1)OCO2)=NNC(=O)c1ccc(N)cc1 [MLS001042207]
EC50: > 300 µM

COC(=O)C1=CN(Cc2ccc(OC)c(OC)c2)C=C(C(=O)OC)C1c1ccccc1F [1-(3,4-Dimethoxy-benzyl)-4-(2-fluoro-phenyl)-1,4-dihydro-pyridine-3,5-dicarboxylic acid dimethyl ester]
EC50: > 300 µM

CC(=O)N1CCc2c(sc(NC(=O)Cc3ccc(F)cc3)c2C(N)=O)C1 [6-acetyl-2-[[2-(4-fluorophenyl)-1-oxoethyl]amino]-5,7-dihydro-4H-thieno[2,3-c]pyridine-3-carboxamide]
EC50: 47.2 µM

CC1(C)CC(=O)C2C(=Nc3cc4c(cc3C2c2ccc(F)cc2)OCO4)C1 (configuration not stated) [MLS000528763]
EC50: > 300 µM

O=C(NCc1ccccn1)c1ccc(Cn2cc(Br)cn2)o1 [SMR000073000]
EC50: > 300 µM

COC(=O)c1ccc(CSc2nnc(-c3ccncc3)o2)cc1
EC50: > 300 µM

CCc1nc2oc3cc(OC)ccc3c(=O)c2c(=O)n1Cc1ccccc1 [2-ethyl-8-methoxy-3-(phenylmethyl)chromeno[2,3-d]pyrimidine-4,5-dione]
EC50: 4.2 µM

Cc1cc2c(Nc3ccc(O)cc3)ncnc2s1 [4-(6-Methyl-thieno[2,3-d]pyrimidin-4-ylamino)-phenol]
EC50: > 300 µM

CCC(=NNC(=O)CSCc1ccccc1Cl)c1ccc2c(c1)OCCO2
EC50: > 300 µM

Cc1ccc(-c2nn(-c3ccccc3)cc2C=NNS(=O)(=O)c2ccccc2)cc1 [SMR000186234]
EC50: > 300 µM

NNc1ncnc2c1cnn2-c1ccccc1 [(1-phenylpyrazolo[3,4-d]pyrimidin-4-yl)diazane]
EC50: 12.8 µM

Cc1cc2nc(-c3cccnc3O)[nH]c2cc1C
EC50: 8.16 µM

CC(C(=O)Nc1cccnc1)n1cc([N+](=O)[O-])cn1 (configuration not stated) [MLS000729046]
EC50: > 300 µM

CCOc1cc(C2c3c(C)n[nH]c3C(=O)N2c2ccc(C)cc2)ccc1O (configuration not stated) [SMR000035605]
EC50: > 300 µM
